This note sets out measurements from PubChem BioAssay AID687022 (Broad Institute, 2013).

Calls of active or inactive are those of the source.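 Rule for the calls: active = Fitted curve of melting temperature shift crosses the 1.0 threshold at or below the sample's highest valid tested concentration; inconclusive = Flat fit with activity 30 to 70, or invalid fit; inactive = Opposite direction, flat within 30, or no crossing.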 Some results are limits rather than exact numbers.

Sequence of Fibroblast growth factor 22 (Homo sapiens) (Q9HCT0 whole entry, looked up): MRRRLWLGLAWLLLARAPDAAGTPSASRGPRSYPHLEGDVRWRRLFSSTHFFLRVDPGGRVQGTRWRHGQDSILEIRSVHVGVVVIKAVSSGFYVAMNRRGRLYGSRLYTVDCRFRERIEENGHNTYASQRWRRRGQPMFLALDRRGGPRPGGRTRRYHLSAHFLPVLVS

This assay addresses Fibroblast growth factor 22 (Homo sapiens) (UniProt Q9HCT0). Nature of the assay: binders of human FGF22 protein, dose response, FGF22 synaptogenesis inhibitor project, biophysical, thermal shift, cherry-pick (AID 687022). The note with it: recombinant FGF22 thermal shift, SYPRO orange melting.
As to `Nc1ccc(C(=O)N/N=C/c2c[nH]c3ccccc23)cc1`, the AbsAC1 (concentration giving Tm-shift threshold 1.0) is 3.41 µM. As for `COc1cccc(C#Cc2ccc([C@H]3[C@H]4CN(S(=O)(=O)c5ccccc5C)CC(=O)N4[C@H]3CO)cc2)c1`, the AbsAC1 (concentration giving Tm-shift threshold 1.0) is 16.6 µM. `O=C(N/N=C/c1ccc(Cl)c(Cl)c1)c1ccc2nc[nH]c2c1`: the AbsAC1 (concentration giving Tm-shift threshold 1.0) was 2.35 µM. Consider `CCCOC(=O)c1ccc(Oc2cn[nH]c2-c2ccc(O)cc2O)cc1`, for which the AbsAC1 (concentration giving Tm-shift threshold 1.0) is 18.6 µM. For the compound `O=C(O)c1ccccc1Nc1ccc([N+](=O)[O-])cc1`, the AbsAC1 (concentration giving Tm-shift threshold 1.0) was 16.2 µM. For the compound `O=C(N/N=C/c1c[nH]c2ccc(Br)cc12)c1ccc2c(c1)OCO2`, the AbsAC1 (concentration giving Tm-shift threshold 1.0) is 14.3 µM.

For the compound `CCN(CC)c1ccc(/C=N/NC(=O)c2c[nH]c3ccccc23)cc1`, the AbsAC1 (concentration giving Tm-shift threshold 1.0) was 26.8 µM. On to `O=C(N/N=C/c1ccc([N+](=O)[O-])cc1)c1c[nH]c2ccccc12`, for which the AbsAC1 (concentration giving Tm-shift threshold 1.0) was 20 µM. For the compound `NC(=O)c1ccsc1NC(=O)COC(=O)CCCOc1ccccc1`, the AbsAC1 (concentration giving Tm-shift threshold 1.0) is 5.37 µM. Consider `COc1nsnc1NS(=O)(=O)c1ccc(NC(=S)NC(=O)c2cccnc2)cc1`, for which the AbsAC1 (concentration giving Tm-shift threshold 1.0) is 8.95 µM. `CCOc1ccc(NS(=O)(=O)c2ccc(C(=O)NNC(=O)c3ccccc3O)cc2)cc1`: the AbsAC1 (concentration giving Tm-shift threshold 1.0) was > 38 µM (inactive). `C[C@@H]1CN([C@H](C)CO)C(=O)c2cc(NC(=O)Nc3ccc(C(F)(F)F)cc3)ccc2O[C@@H]1CN(C)Cc1ccc(C(=O)O)cc1`: the AbsAC1 (concentration giving Tm-shift threshold 1.0) is 11.5 µM. In the case of `CC(=O)c1ccc(NC(=O)c2noc(C(C)C)c2[N+](=O)[O-])cc1`, the AbsAC1 (concentration giving Tm-shift threshold 1.0) is 3.85 µM.

In the case of `CCc1ccc(N2CC(C(=O)OCC(=O)Nc3ccc(C#N)cc3)CC2=O)cc1` (stereo unspecified), the AbsAC1 (concentration giving Tm-shift threshold 1.0) was 20.8 µM.

`O=C(Nc1ccc(S(=O)(=O)N2CCCC2)cc1)c1cccs1`: the AbsAC1 (concentration giving Tm-shift threshold 1.0) was 9.33 µM. Consider `Nc1nonc1-n1nnc(C(=O)N/N=C/c2cccnc2)c1CSc1ccc(Cl)cc1`, for which the AbsAC1 (concentration giving Tm-shift threshold 1.0) was 3.46 µM.

With `COc1cc(/C=N/NC(=O)c2[nH]nc3c2CCc2ccccc2-3)ccc1O`, the AbsAC1 (concentration giving Tm-shift threshold 1.0) was 6.1 µM. `Cc1ccn(-c2ccc(NC(=O)c3cccs3)cc2)n1`: the AbsAC1 (concentration giving Tm-shift threshold 1.0) is 3.72 µM. For `Cc1nc2ccccc2c2oc(C(=O)NCc3ccc4c(c3)OCO4)cc12` the value was 2.57 µM; for `O=C(N/N=C/c1c[nH]c2ccccc12)C1CC1c1ccccc1` (stereo unspecified), 14 µM. For the compound `O=C(N/N=C/c1ccc(O)c(O)c1)N/N=C/c1ccc(O)c(O)c1`, the AbsAC1 (concentration giving Tm-shift threshold 1.0) was 7.88 µM. As to `COc1cc(NS(=O)(=O)c2ccc(NS(=O)(=O)c3ccc(C)cc3)cc2)nc(OC)n1`, the AbsAC1 (concentration giving Tm-shift threshold 1.0) is 3.69 µM. Turning to `O=C(Nc1nnc(C(F)(F)F)s1)c1ccc(Br)s1`, the AbsAC1 (concentration giving Tm-shift threshold 1.0) is 15.6 µM. Regarding `Cc1ccccc1S(=O)(=O)NCC[C@@H]1CC[C@@H](NC(=O)Nc2cccc(Cl)c2)[C@@H](CO)O1`, the AbsAC1 (concentration giving Tm-shift threshold 1.0) was 8.07 µM.

Turning to `COc1ccc(Nc2nc3ccc(OC)cc3s2)cc1`, the AbsAC1 (concentration giving Tm-shift threshold 1.0) was 2.95 µM. With `O=C(C[C@H]1CC[C@@H]2[C@H](COC[C@H](O)CN2S(=O)(=O)c2cccc(F)c2)O1)Nc1ccccc1`, the AbsAC1 (concentration giving Tm-shift threshold 1.0) is 3.48 µM.

As to `N#Cc1ccc(NC(=O)Nc2cccc(C#N)c2)cc1`, the AbsAC1 (concentration giving Tm-shift threshold 1.0) is 4.49 µM. Regarding `O=C(Nc1ccc(S(=O)(=O)N2CCOCC2)cc1)c1ccc(F)cc1`, the AbsAC1 (concentration giving Tm-shift threshold 1.0) is 12.7 µM. As to `COc1ccc(C(=O)Nc2nc(CC(=O)NCCc3ccccc3)cs2)cc1`, the AbsAC1 (concentration giving Tm-shift threshold 1.0) is 11.3 µM. Take `C[C@H](CO)N1C[C@H](C)[C@@H](CN(C)C(=O)C2CC2)OCc2ccccc2-c2ccccc2C1=O`: the AbsAC1 (concentration giving Tm-shift threshold 1.0) was 35.4 µM. As to `COc1cc2cc(NC(C)=O)cc(NCc3ccccc3)c2cc1OC`, the AbsAC1 (concentration giving Tm-shift threshold 1.0) is 8.13 µM.

Consider `O=[N+]([O-])c1ccc(Nc2cccc(F)c2)nc1`, for which the AbsAC1 (concentration giving Tm-shift threshold 1.0) was 3.78 µM.

Regarding `O=C(CC(=O)c1ccccc1)Nc1cccc([N+](=O)[O-])c1`, the AbsAC1 (concentration giving Tm-shift threshold 1.0) is 4.49 µM.

As to `Cc1ccccc1-n1c(O)c(/C=N/NC(=O)c2ccccc2O)c(=O)[nH]c1=S`, the AbsAC1 (concentration giving Tm-shift threshold 1.0) was 3.51 µM. Take `COc1ccc(/C=N/NC(=O)c2ccc(NS(=O)(=O)c3cccs3)cc2)cc1`: the AbsAC1 (concentration giving Tm-shift threshold 1.0) was 7.28 µM.

Turning to `COc1ccc(/C=N/NC(=O)c2cc(-c3ccc4c(c3)OCO4)n[nH]2)cc1OC`, the AbsAC1 (concentration giving Tm-shift threshold 1.0) is 18.1 µM.

`CCN(CC)S(=O)(=O)c1ccc(N/N=C(\C)c2ccc(OC)cc2O)nc1`: the AbsAC1 (concentration giving Tm-shift threshold 1.0) is 14 µM. For `O=C(O)Cn1cc(/C=N/NC(=O)c2cc3cc(Br)ccc3o2)c2ccccc21` the value was 6.74 µM. Consider `O=C(N/N=C/c1ccc(C(F)(F)F)cc1)c1ccc(O)cc1`, for which the AbsAC1 (concentration giving Tm-shift threshold 1.0) was 2.48 µM.

For the compound `O=C(O)c1ccc(Cl)c(S(=O)(=O)Nc2ccc(S(=O)(=O)N3CCCC3)cc2)c1`, the AbsAC1 (concentration giving Tm-shift threshold 1.0) is 14.1 µM. Turning to `COc1ccc(C#Cc2ccc3c(c2)O[C@H](CN(C)S(=O)(=O)c2ccccc2F)[C@@H](C)CN([C@@H](C)CO)S3(=O)=O)cc1`, the AbsAC1 (concentration giving Tm-shift threshold 1.0) was 14.7 µM. On to `C/C(=N\NC(=O)c1cccc(S(=O)(=O)N2CCOCC2)c1)c1ccc(OC(F)F)cc1`, for which the AbsAC1 (concentration giving Tm-shift threshold 1.0) is 21.9 µM. As for `CC(C)n1c(=O)c2ccccc2n1Cc1cn(-c2ccc(Cl)cc2)nn1`, the AbsAC1 (concentration giving Tm-shift threshold 1.0) is 3.24 µM. With `COc1ccccc1CNC(=O)C[C@H]1CC[C@@H]2[C@H](COC[C@H](O)CN2C(=O)Nc2ccc(Cl)cc2)O1`, the AbsAC1 (concentration giving Tm-shift threshold 1.0) is 30.5 µM.

Turning to `CC(C)CC(=O)n1sc(NC(=O)c2ccccc2)nc1=O`, the AbsAC1 (concentration giving Tm-shift threshold 1.0) is 6.61 µM.

In the case of `C[C@@H]1CN([C@@H](C)CO)S(=O)(=O)c2ccc(-c3ccncc3)cc2O[C@@H]1CN(C)C(=O)Nc1ccc(F)cc1`, the AbsAC1 (concentration giving Tm-shift threshold 1.0) was 4.72 µM.

In the case of `CC1(C(=O)NS(=O)(=O)Cc2cccc(Cl)c2)CCN1C(=O)C1(c2ccc(Cl)cc2)CCC1` (stereo unspecified), the AbsAC1 (concentration giving Tm-shift threshold 1.0) is > 10 µM (inactive). On to `CC(C)C#Cc1cnc2c(c1)C(=O)N([C@@H](C)CO)C[C@@H](C)[C@H](CN(C)C(=O)c1cnccn1)O2`, for which the AbsAC1 (concentration giving Tm-shift threshold 1.0) was > 38 µM (inactive). Turning to `COc1ccc(S(=O)(=O)N(NC2=NS(=O)(=O)c3ccccc32)C(=O)C(C)C)cc1`, the AbsAC1 (concentration giving Tm-shift threshold 1.0) was > 38 µM (inactive). As for `O=C(NN=Cc1ccc(O)cc1)c1ccccc1NS(=O)(=O)c1cccs1`, the AbsAC1 (concentration giving Tm-shift threshold 1.0) was 5.76 µM.

With `CCc1nnc(NS(=O)(=O)c2ccc(NC(=S)NC(=O)/C=C/c3ccc([N+](=O)[O-])cc3)cc2)s1`, the AbsAC1 (concentration giving Tm-shift threshold 1.0) is 4.73 µM. As to `O=C(N/N=C/c1ccncc1)c1cc2ccccc2o1`, the AbsAC1 (concentration giving Tm-shift threshold 1.0) was 6.07 µM. For `O=C(N/N=C/c1cccc(Oc2ccccc2)c1)c1cccc(O)c1` the value was 3.12 µM.

`CCC(=O)Nc1nc(C)c(-c2csc(Nc3ccccn3)n2)s1`: the AbsAC1 (concentration giving Tm-shift threshold 1.0) is 4.91 µM.

On to `CCc1nnc(NS(=O)(=O)c2ccc(NC(=O)c3ccc(Br)cc3)cc2)s1`, for which the AbsAC1 (concentration giving Tm-shift threshold 1.0) was 5.81 µM.

As to `C[C@@H]1CN([C@@H](C)CO)S(=O)(=O)c2ccc(-c3ccncc3)cc2O[C@@H]1CN(C)C(=O)Nc1ccc(C(F)(F)F)cc1`, the AbsAC1 (concentration giving Tm-shift threshold 1.0) is 1.96 µM.

Take `NC(=O)c1ccsc1NC(=O)COC(=O)Cc1c[nH]c2ccccc12`: the AbsAC1 (concentration giving Tm-shift threshold 1.0) is 13.9 µM. Turning to `O=C(CCNC(=O)c1ccccc1Cl)Nc1nc2ccc(F)cc2s1`, the AbsAC1 (concentration giving Tm-shift threshold 1.0) was 9.92 µM. For the compound `O=C(Nc1ccc(S(=O)(=O)NCc2ccccc2)cc1)c1ccccc1[N+](=O)[O-]`, the AbsAC1 (concentration giving Tm-shift threshold 1.0) was 12 µM.

In the case of `O=C(N/N=C/c1ccc(OCc2ccccc2)cc1)c1ccc(O)cc1`, the AbsAC1 (concentration giving Tm-shift threshold 1.0) was 3.59 µM. Consider `COc1ccc(OC)c(Nc2ccc(Nc3cc(OC)ccc3OC)nn2)c1`, for which the AbsAC1 (concentration giving Tm-shift threshold 1.0) is 8.4 µM. In the case of `O=c1ccc2nc3ccccc3sc-2c1`, the AbsAC1 (concentration giving Tm-shift threshold 1.0) is 8.27 µM. Turning to `NC(=O)Nc1ccc(C(=O)OCC(=O)Nc2sccc2C(N)=O)cc1`, the AbsAC1 (concentration giving Tm-shift threshold 1.0) was 23.8 µM.

Take `CN1C(=O)c2cc(NC(=O)c3cccc(F)c3)ccc2OC[C@H]2O[C@@H](CC(=O)N3CCc4ccccc4C3)CC[C@H]21`: the AbsAC1 (concentration giving Tm-shift threshold 1.0) is 18.4 µM. Turning to `C/C=C/c1ccc2c(c1)O[C@@H](CN(C)C(=O)Nc1ccc(F)cc1)[C@@H](C)CN([C@H](C)CO)S2(=O)=O`, the AbsAC1 (concentration giving Tm-shift threshold 1.0) is 14.8 µM.

In the case of `Oc1ccc(-c2csc(Nc3ccccn3)n2)c(O)c1`, the AbsAC1 (concentration giving Tm-shift threshold 1.0) is 5.13 µM.

For the compound `CCN1C(=O)C(CC(=O)Nc2ccc(OC)cc2)N(Cc2ccc3c(c2)OCO3)C1=S` (stereo unspecified), the AbsAC1 (concentration giving Tm-shift threshold 1.0) is 4.05 µM.

As to `CC(C)(C)c1ccc(C2CC2C(=O)N/N=C\c2ccc[nH]2)cc1` (stereo unspecified), the AbsAC1 (concentration giving Tm-shift threshold 1.0) is 14.3 µM. On to `C=C1[C@@H](O)[C@H](Cc2ccccc2)N(Cc2ccccc2Br)S1(=O)=O`, for which the AbsAC1 (concentration giving Tm-shift threshold 1.0) was 15.5 µM. Take `O=C(N/N=C/c1c[nH]c2ccc(Br)cc12)C1CC1`: the AbsAC1 (concentration giving Tm-shift threshold 1.0) was 7.7 µM. For `O=C(NCC[C@@H]1CC[C@@H](NC(=O)Nc2cc(F)ccc2F)[C@@H](CO)O1)Nc1ccc(F)cc1`, the AbsAC1 (concentration giving Tm-shift threshold 1.0) is 18.1 µM. Turning to `O=C(Nc1ccc(F)cc1)N[C@@H]1CC[C@H](CCn2cc(-c3ccccc3F)nn2)O[C@H]1CO`, the AbsAC1 (concentration giving Tm-shift threshold 1.0) was 10.3 µM. On to `Cn1ncc2c(Nc3ccc(Cl)c(Cl)c3)ncnc21`, for which the AbsAC1 (concentration giving Tm-shift threshold 1.0) is 24.9 µM. For the compound `Cc1noc(C)c1NC(=O)N[C@@H]1C=C[C@H](CC(=O)Nc2ccc(-c3ccccc3)cc2)O[C@@H]1CO`, the AbsAC1 (concentration giving Tm-shift threshold 1.0) was 5.28 µM. Regarding `Oc1ccc(-c2nc3ccccc3s2)c(O)c1`, the AbsAC1 (concentration giving Tm-shift threshold 1.0) is 5.15 µM.

For `O=C(C[C@@H]1CC[C@@H]2[C@H](COC[C@@H](O)CN2S(=O)(=O)c2cccc(F)c2)O1)Nc1ccc(-c2ccccc2)cc1`, the AbsAC1 (concentration giving Tm-shift threshold 1.0) is 22.3 µM.
